From patent US8088796B2, “Triamine derivative” (Daiichi Sankyo Company, Limited, priority 2005, dated 2012) come the findings set out here.

The subject of one series is Human blood plasma. The series is described as follows: Determination of prothrombin time (PT). Format: biochemical. To be noted: concentration at which PT is doubled, Thromboplastin C Plus, linear regression. On the procedure:
Determination of Prothrombin Time (PT)
Human blood plasma (50 μl) was added to 50 μl of each test compound dissolved in 4% DMSO/physiological saline, and the mixture was pre-incubated at 37° C. for 1 minute. Subsequently, 100 μl of 0.5 U/ml Thromboplastin C Plus (Dade Behring) was added to initiate the reaction. The coagulation time was measured using Amelung KC-10A micro coagulometer (MC Medical). As a control, 4% DMSO/physiological saline was used in place of the test compound. The concentration at which PT is doubled (PTCT2) was calculated by linear regression.

Series [1] is described as follows: Test for oral administration (plasma concentration). Format: in vivo. The note with it: 1 mg/kg, monkey, fasted, 1 mg/2 mL/kg as free form in 0.5% methyl cellulose, plasma 0.5-24 h, HPLC/MS/MS. The protocol:
Test for Oral Administration
To a monkey which had been fasted for over 15 hours, each test compound was orally administered in a free form at a dose of 1 mg/2 mL/kg. The test compound was dissolved or suspended in a 0.5% methyl cellulose solution. Before and 0.5, 1, 2, 4, 8 and 24 hours after the administration, the blood was collected at a ratio of 9 volumes to 1 volume of […] (total 1 ml). The blood was centrifuged (3000 rpm, 10 minutes, 4° C.), and the plasma was collected by separation. The separated plasma was pre-treated, and was subjected to measurement with HPLC/MS/MS, to calculate the plasma concentration from the areas under peak of the internal standard material and the test compound given by SRM chromatography using a calibration curve.

In another series the target is T1, human FXa (Homo sapiens, UniProt P00742).
T1 construct: purchased Enzyme Research Laboratories, Inc
T1 sequence (P00742 235-488 limits assumed): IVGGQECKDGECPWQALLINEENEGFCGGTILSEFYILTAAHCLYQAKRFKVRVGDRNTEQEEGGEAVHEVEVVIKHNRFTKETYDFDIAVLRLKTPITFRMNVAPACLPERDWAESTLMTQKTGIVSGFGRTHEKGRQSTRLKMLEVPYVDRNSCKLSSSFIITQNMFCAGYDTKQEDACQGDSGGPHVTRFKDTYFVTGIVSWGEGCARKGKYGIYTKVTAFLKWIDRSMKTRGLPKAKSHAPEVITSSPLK
T1 sequence (P00742 41-179 partner limits assumed): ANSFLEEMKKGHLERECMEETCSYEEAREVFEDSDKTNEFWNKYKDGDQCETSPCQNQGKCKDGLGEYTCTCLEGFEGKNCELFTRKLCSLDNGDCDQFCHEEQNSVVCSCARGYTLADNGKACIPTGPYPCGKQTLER
Description: Determination of human FXa inhibitory effect (IC50 value). The format is biochemical. The note with it: substrate S-2222, absorbance at 405 nm, room temperature, read-out: FXaIC50. The protocol: Determination of Human FXa Inhibitory Effect (IC50 Value)
To each well of a 96-well microplate, 10 μl of 5% DMSO solutions of each test compound, the concentrations of which were appropriately prepared stepwise, 40 μl of Tris buffer (100 mM Tris, 200 mM potassium chloride, 0.2% BSA, pH 7.4) and 10 μl of 0.0625 U/ml human FXa (Enzyme Research Laboratories, Inc. dissolved and diluted with Tris buffer) were added, and 40 μl of a 750 μM aqueous solution of S-2222 (Chromogenix Co.) was added. Absorbance at 405 nm was measured for 10 minutes at room temperature to determine an increase in absorbance (ΔOD/min). As a control, Tris buffer was used in place of the test compound.
The rate of inhibition (%) at the final concentration of the test compound calculated using the following equation and the final concentration of the test compound were plotted as ordinate and as abscissa, respectively on a logarithmic normal probability paper, to determine the 50% inhibition dose (IC^50 value). Rate of inhibition (%)=(1−(ΔOD/min) of test compound[…](ΔOD/min) of control)×100

Counter-ions that a name gives are not always drawn.

Take `COCC(=O)N1CC[C@H](NC(=O)C(=O)Nc2ccc(Cl)cn2)[C@H](NC(=O)c2nc3c(s2)CN(C)CC3)C1.Cl` [Compound A, N^1-(5-chloropyridin-2-yl)-N^2-((3R,4S)-1-(2-methoxyacetyl)-3-{[(5-methyl-4,5,6,7-tetrahydrothiazolo[5,4-c]pyridin-2-yl)carbonyl]amino}piperidin-4-yl)ethanediamide hydrochloride, reference compound]: the PTCT2 in the series on Human blood plasma was determined as 0.37 µM. Further, the AUC in series [1] came out at 157 ng·h/mL. The IC50 at human FXa was determined as 2.3 nM.
As for `CN1CCc2nc(C(=O)N[C@@H]3CN(C=O)CC[C@@H]3NC(=O)C(=O)Nc3ccc(Cl)cn3)sc2C1` [Example 8, N^1-(5-chloropyridin-2-yl)-N^2-((3R,4S)-1-formyl-3-{[(5-methyl-4,5,6,7-tetrahydrothiazolo[5,4-c]pyridin-2-yl)carbonyl]amino}piperidin-4-yl)ethanediamide hydrochloride], in the series on Human blood plasma, the PTCT2 is 0.26 µM. Moreover, in series [1], the AUC came out at 826 ng·h/mL. Besides, at human FXa, the IC50 was 2.2 nM.
Turning to `CC(=O)N1CC[C@H](NC(=O)C(=O)Nc2ccc(Cl)cn2)[C@H](NC(=O)c2nc3c(s2)CN(C)CC3)C1` [Example 9, N^1-((3R,4S)-1-acetyl-3-{[(5-methyl-4,5,6,7-tetrahydrothiazolo[5,4-c]pyridin-2-yl)carbonyl]amino}piperidin-4-yl)-N^2-(5-chloropyridin-2-yl)ethanediamide hydrochloride], the PTCT2 with Human blood plasma was 0.25 µM. This compound showed an AUC in series [1] of 482 ng·h/mL. The IC50 at human FXa came to 1.6 nM.
Turning to `CN1CCc2nc(C(=O)N[C@@H]3CN(C=O)CC[C@@H]3NC(=O)C(=O)Nc3ccc(Cl)s3)sc2C1` [Example 23, N^1-(5-chlorothiophen-2-yl)-N^2-((3R,4S)-1-formyl-3-{[(5-methyl-4,5,6,7-tetrahydrothiazolo[5,4-c]pyridin-2-yl)carbonyl]amino}piperidin-4-yl)ethanediamide hydrochloride], the PTCT2 with Human blood plasma was determined as 0.14 µM. The compound also had an AUC in series [1] of 899 ng·h/mL. For the same compound, the IC50 at human FXa worked out at 0.9 nM.
On to `O=CN1CC[C@H](NC(=O)C(=O)Nc2ccc(Cl)cn2)[C@H](NC(=O)c2nc3c(s2)COCC3)C1` [Example 38, N^1-(5-chloropyridin-2-yl)-N^2-((3R,4S)-3-{[(6,7-dihydro-4H-pyrano[4,3-d]thiazol-2-yl)carbonyl]amino}-1-formylpiperidin-4-yl)ethanediamide], for which, in the series on Human blood plasma, the PTCT2 came to 0.50 µM. In series [1], this compound returned an AUC of 880 ng·h/mL. For the same compound, the IC50 on human FXa came out at 3 nM.

In general, AUC refers to the area under the concentration-time curve, a measure of exposure. Low values mean low exposure, high ones high exposure.
